Our source for the IC50 and EC50 values is ChEMBL document CHEMBL4616581, “Current scenario of artemisinin and its analogues for antimalarial activity” (Eur J Med Chem, 2019).

Type in all cases: functional, organism-based
The test system of assay [1] is Plasmodium falciparum. Kind of assay: Antimalarial activity against blood stages of chloroquine-resistant Plasmodium falciparum K1.
Assay [2] relates to Plasmodium falciparum. Kind of assay: Antimalarial activity against Plasmodium falciparum HB3 after 48 hrs by [3H]-hypoxanthine incorporation assay.
Assay [3] deals with Plasmodium falciparum. Kind of assay: Antimalarial activity against chloroquine-resistant Plasmodium falciparum K1 after 48 hrs by [3H]-hypoxanthine incorporation assay.
In assay [4] the test system is Plasmodium falciparum. Kind of assay: Antimalarial activity against Plasmodium falciparum D6 after 48 hrs by in presence of [3H]hypoxanthine.
For assay [5], the system named is Plasmodium falciparum. Kind of assay: Antimalarial activity against Plasmodium falciparum W2 after 48 hrs by in presence of [3H]hypoxanthine.
Assay [6] has as its system Plasmodium falciparum. Kind of assay: Antimalarial activity against Plasmodium falciparum NF54.
Assay [7] deals with Plasmodium falciparum. Kind of assay: Antimalarial activity against Plasmodium falciparum 3D7 after 72 hrs by SYBR green dye-based assay. As to conditions: 3D7, 72 h.
For assay [8], the system named is Plasmodium falciparum. Kind of assay: Antimalarial activity against Plasmodium falciparum K1 after 48 hrs by [3H]hypoxanthine incorporation assay.
Assay [9] has as its system Plasmodium falciparum. Kind of assay: Antimalarial activity against Plasmodium falciparum K1.
For assay [10], the system named is Plasmodium falciparum. Nature of the assay: Antimalarial activity against Plasmodium falciparum HB3.
For assay [11], the system named is Plasmodium falciparum. Kind of assay: Antimalarial activity against blood stages of chloroquine-sensitive Plasmodium falciparum 3D7.
The subject of assay [12] is Plasmodium falciparum. Nature of the assay: Antimalarial activity against Plasmodium falciparum K1 by [3H]-hypoxanthine incorporation assay.
Assay [13] concerns Plasmodium falciparum. Nature of the assay: Antimalarial activity against Plasmodium falciparum HB3 after 48 hrs by [3H]hypoxanthine incorporation assay.
In assay [14] the test system is Plasmodium falciparum. Kind of assay: Antimalarial activity against chloroquine-sensitive Plasmodium falciparum NF54.
The test system of assay [15] is Plasmodium falciparum. Nature of the assay: Antimalarial activity against chloroquine-sensitive Plasmodium falciparum 3D7 after 72 hrs by SYBR green dye-based spectrofluorometer analysis. As to conditions: 3D7, 72 h.
Assay [16] concerns Plasmodium falciparum. Nature of the assay: Antimalarial activity against chloroquine-resistant Plasmodium falciparum K1 after 72 hrs by SYBR green dye-based spectrofluorometer analysis. As to conditions: K1, 72 h.

pEC50, pIC50: −log10 of the molar value.

For orientation: IC50 means the concentration that inhibits the measured activity by half. As to `CO[C@H]1O[C@@H]2C[C@]3(C)CC[C@H]4[C@H](C)CC[C@@H]([C@H]1C)[C@@]24OO3`, 0.301 ng/mL corresponded to half-maximal inhibition in the assay with Plasmodium falciparum [1] (IC50).

Usually pIC50 stands for the negative decadic logarithm of the IC50, by convention in mol/L. A high value points to a small IC50. With `COP(=O)(OCC[C@H]1O[C@@H]2O[C@]3(C)CC[C@H]4[C@H](C)CC[C@@H]([C@H]1C)[C@@]24OO3)OCC[C@H]1O[C@@H]2O[C@]3(C)CC[C@H]4[C@H](C)CC[C@@H]([C@H]1C)[C@@]24OO3`, the results for the pIC50 with Plasmodium falciparum [2] and with Plasmodium falciparum [3] were 10.05 and 9.70, respectively. Turning to `CCOC(=O)CC[C@@H](O[C@H]1O[C@@H]2O[C@]3(C)CC[C@H]4[C@H](C)CC[C@@H]([C@H]1C)[C@@]24OO3)c1ccc([N+](=O)[O-])cc1`, the results for the IC50 in the assay on Plasmodium falciparum [4] and in the assay on Plasmodium falciparum [5] were 0.563 ng/mL and 0.23 ng/mL, respectively. As for `CCOC(=O)CC[C@H](O[C@H]1O[C@@H]2O[C@]3(C)CC[C@H]4[C@H](C)CC[C@@H]([C@H]1C)[C@@]24OO3)c1ccccc1`, the values for the IC50 in the assay with Plasmodium falciparum [4] and with Plasmodium falciparum [5] were 0.459 ng/mL and 0.144 ng/mL, respectively.

`C=CC1=C(C)[C@@H]2CC[C@@H](C)[C@@H]3CC[C@]4(C)OO[C@@]23[C@H](O1)O4`: the pIC50 in the assay with Plasmodium falciparum [6] is 7.55. The term pEC50 denotes −log10 of the EC50, conventionally taken in molar units. For `C[C@H]1[C@H](OC(=O)CCC(=O)Nc2ccc3ncnc(Nc4ccc(Cl)c(Cl)c4)c3c2)O[C@@H]2O[C@]3(C)CC[C@H]4[C@H](C)CC[C@@H]1[C@@]24OO3`, the pEC50 in the assay on Plasmodium falciparum [7] is 8.85. The compound `C[C@H]1[C@@H](Oc2ccc(C(F)(F)F)cc2)O[C@@H]2O[C@]3(C)CC[C@H]4[C@H](C)CC[C@@H]1[C@@]24OO3` showed a pIC50 in the assay on Plasmodium falciparum [8] of 8.23.

For the compound `C[C@H]1[C@@H](OCc2ccc(CN3CCOCC3)cc2)O[C@@H]2O[C@]3(C)CC[C@H]4[C@H](C)CC[C@@H]1[C@@]24OO3`, the pIC50 in the assay with Plasmodium falciparum [9] was 7.46; with Plasmodium falciparum [10] it was 7.30. Take `CC1=C(/C=C\c2ccccc2)O[C@@H]2O[C@]3(C)CC[C@H]4[C@H](C)CC[C@@H]1[C@@]24OO3`: the pIC50 in the assay on Plasmodium falciparum [6] is 8.09. For the compound `C[C@@H]1CC[C@H]2[C@@H](C)C(=O)O[C@@H]3O[C@@]4(C)CC[C@@H]1[C@]32OO4` [ARTEMISININ], the IC50 in the assay with Plasmodium falciparum [1] came to 0.68 ng/mL. In the assay with Plasmodium falciparum [11], this compound gave a pEC50 of 7.92. Regarding `C[C@H]1[C@@H](OCc2ccc(C(=O)O)cc2)O[C@@H]2C[C@]3(C)CC[C@H]4[C@H](C)CC[C@@H]1[C@@]24OO3`, the IC50 in the assay on Plasmodium falciparum [1] is 1.38 ng/mL. As to `C[C@@H]1CC[C@H]2[C@H](C[C@@]3(CCCCCCC4C(=O)O[C@@H]5O[C@]6(C)CC[C@H]7[C@H](C)CC[C@@H]4[C@@]57OO6)C(=O)O[C@@H]4O[C@]5(C)CC[C@H]6[C@H](C)CC[C@@H]3[C@@]46OO5)C(=O)O[C@@H]3O[C@]4(C)CC[C@@H]1[C@]32OO4` (some centres undefined), the pEC50 in the assay on Plasmodium falciparum [12] is 8.62. For the compound `CNCCO[C@H]1O[C@@H]2O[C@]3(C)CC[C@H]4[C@H](C)CC[C@@H]([C@H]1C)[C@@]24OO3`, the pIC50 in the assay on Plasmodium falciparum [9] was 7.62; with Plasmodium falciparum [10] it was 7.57. In the assay on Plasmodium falciparum [12], `CC1CCC2C(CCCCCCC[C@]3(C[C@@H]4C(=O)O[C@@H]5O[C@]6(C)CC[C@H]7[C@H](C)CC[C@@H]4[C@@]57OO6)C(=O)O[C@@H]4O[C@]5(C)CC[C@H]6[C@H](C)CC[C@@H]3[C@@]46OO5)C(O)OC3OC4(C)CCC1C32OO4` (some centres undefined) gave a pEC50 of 8.51. For the compound `C[C@H]1[C@H](Oc2cccc3ccccc23)O[C@@H]2O[C@]3(C)CC[C@H]4[C@H](C)CC[C@@H]1[C@@]24OO3`, the pIC50 with Plasmodium falciparum [8] and in the assay on Plasmodium falciparum [13] was 8.54 throughout. For the compound `C[C@@H]1CC[C@H]2[C@@H](C)C(CC(=O)c3ccc(C(=O)CC4O[C@@H]5O[C@]6(C)CC[C@H]7[C@H](C)CC[C@@H]([C@H]4C)[C@@]57OO6)cc3)O[C@@H]3O[C@]4(C)CC[C@@H]1[C@]32OO4` (some centres undefined), the pIC50 in the assay on Plasmodium falciparum [14] was 8.72.

For the compound `CCC(=O)OC1O[C@@H]2O[C@]3(C)CC[C@H]4[C@H](C)CC[C@@H]([C@H]1C)[C@@]24OO3` (some centres undefined), the pEC50 was 8.51 in the assay on Plasmodium falciparum [15] and 9.52 with Plasmodium falciparum [16]. Regarding `C[C@H]1[C@H](OC(=O)CCC(=O)Oc2ccc(Nc3ncnc4ccccc34)cc2)O[C@@H]2O[C@]3(C)CC[C@H]4[C@H](C)CC[C@@H]1[C@@]24OO3`, in the assay on Plasmodium falciparum [7], the pEC50 was 8.42.

Consider `C[C@@H]1CC[C@H]2[C@@H](C)C(CC(=O)c3cccc(C(=O)CC4O[C@@H]5O[C@]6(C)CC[C@H]7[C@H](C)CC[C@@H]([C@H]4C)[C@@]57OO6)c3)O[C@@H]3O[C@]4(C)CC[C@@H]1[C@]32OO4` (some centres undefined), for which the pIC50 in the assay with Plasmodium falciparum [14] is 8.72. Turning to `CCOC(=O)CC[C@@H](O[C@H]1O[C@@H]2O[C@]3(C)CC[C@H]4[C@H](C)CC[C@@H]([C@H]1C)[C@@]24OO3)c1ccccc1`, the IC50 worked out at 0.496 ng/mL in the assay with Plasmodium falciparum [4] and 0.213 ng/mL in the assay on Plasmodium falciparum [5]. `COc1cc(OC)c(C2O[C@@H]3O[C@]4(C)CC[C@H]5[C@H](C)CC[C@@H]([C@H]2C)[C@@]35OO4)cc1C1O[C@@H]2O[C@]3(C)CC[C@H]4[C@H](C)CC[C@@H]([C@H]1C)[C@@]24OO3` (some centres undefined): the pIC50 in the assay with Plasmodium falciparum [14] was 8.89.

For the compound `CC1=C(/C=C/c2ccccc2)O[C@@H]2O[C@]3(C)CC[C@H]4[C@H](C)CC[C@@H]1[C@@]24OO3`, in the assay on Plasmodium falciparum [6], the pIC50 is 7.80.

As for `C[C@@H]1CC[C@H]2[C@@H](C)C(O)O[C@@H]3C[C@]4(C)CC[C@@H]1[C@]32OO4` (some centres undefined), 0.69 ng/mL corresponded to half-maximal inhibition in the assay on Plasmodium falciparum [1] (IC50).

`CCO[C@H]1O[C@@H]2C[C@]3(C)CC[C@H]4[C@H](C)CC[C@@H]([C@H]1C)[C@@]24OO3`: the pIC50 with Plasmodium falciparum [1] was 7.89.

Turning to `C[C@H]1[C@@H](OCc2ccc(CO)cc2)O[C@@H]2O[C@]3(C)CC[C@H]4[C@H](C)CC[C@@H]1[C@@]24OO3`, the figures for the pIC50 with Plasmodium falciparum [9] and in the assay with Plasmodium falciparum [10] were 8.36 and 8.38, respectively. The matching figures for `C[C@H]1[C@@H](OCCN2CCCC2)O[C@@H]2O[C@]3(C)CC[C@H]4[C@H](C)CC[C@@H]1[C@@]24OO3`: 7.64 and 7.64. On to `C[C@@H]1CC[C@H]2[C@H](C[C@@]3(CCCCCCC[C@]4(C[C@H]5C(=O)O[C@@H]6O[C@]7(C)CC[C@H]8[C@H](C)CC[C@@H]5[C@@]68OO7)C(=O)O[C@@H]5O[C@]6(C)CC[C@H]7[C@H](C)CC[C@@H]4[C@@]57OO6)C(=O)O[C@@H]4O[C@]5(C)CC[C@H]6[C@H](C)CC[C@@H]3[C@@]46OO5)C(=O)O[C@@H]3O[C@]4(C)CC[C@@H]1[C@]32OO4`, for which the pEC50 in the assay with Plasmodium falciparum [12] was 7.70.

`CC(C)CNCCOC1O[C@@H]2O[C@]3(C)CC[C@H]4[C@H](C)CC[C@@H]([C@H]1C)[C@@]24OO3` (some centres undefined): the figures for the pEC50 in the assay with Plasmodium falciparum [15] and in the assay on Plasmodium falciparum [16] were 8.17 and 8.62, respectively. Turning to `C[C@H]1[C@@H](OCc2ccc(CN)cc2)O[C@@H]2O[C@]3(C)CC[C@H]4[C@H](C)CC[C@@H]1[C@@]24OO3`, the pIC50 with Plasmodium falciparum [9] was 8.85; with Plasmodium falciparum [10] it was 8.51.

`C[C@@H]1CC[C@H]2[C@H](C[C@@]3(CCCCCC[C@]4(C[C@H]5C(=O)O[C@@H]6O[C@]7(C)CC[C@H]8[C@H](C)CC[C@@H]5[C@@]68OO7)C(=O)O[C@@H]5O[C@]6(C)CC[C@H]7[C@H](C)CC[C@@H]4[C@@]57OO6)C(=O)O[C@@H]4O[C@]5(C)CC[C@H]6[C@H](C)CC[C@@H]3[C@@]46OO5)C(=O)O[C@@H]3O[C@]4(C)CC[C@@H]1[C@]32OO4` showed a pEC50 in the assay on Plasmodium falciparum [12] of 8.24. On to `C[C@H]1[C@@H](CCOP(=O)(OCC[C@H]2O[C@@H]3O[C@]4(C)CC[C@H]5[C@H](C)CC[C@@H]([C@H]2C)[C@@]35OO4)Oc2ccccc2)O[C@@H]2O[C@]3(C)CC[C@H]4[C@H](C)CC[C@@H]1[C@@]24OO3`, for which the pIC50 in the assay on Plasmodium falciparum [2] is 9.74; in the assay with Plasmodium falciparum [3], 9.30. Turning to `C[C@@H]1CC[C@H]2[C@@H](C)C(OC(=O)Cc3ccccc3)O[C@@H]3O[C@]4(C)CC[C@@H]1[C@]32OO4` (some centres undefined), the figures for the pEC50 in the assay with Plasmodium falciparum [15] and with Plasmodium falciparum [16] were 8.62 and 9.30, respectively.

Regarding `C[C@H]1[C@@H](Oc2cccc3ccccc23)O[C@@H]2O[C@]3(C)CC[C@H]4[C@H](C)CC[C@@H]1[C@@]24OO3`, the negative-log IC50 (pIC50) is 8.05 with Plasmodium falciparum [8] and 8.15 in the assay with Plasmodium falciparum [13].
